{"source": "patent US9221029B2", "about": "“Automatic system for synthesizing 123I-MIBG and automatic device for synthesizing and dispensing 123I-MIBG comprising the same” (Institute of Nuclear Energy Research Atomic Energy Council, …, priority 2013, dated 2015)", "origin": "cited, not measured here", "key": {"[1]": {"tested_on": "neuroblastoma", "conditions": "21 neuroblastoma patients; especially at bones"}, "[2]": {"tested_on": "neuroblast", "conditions": "after intravenous injection"}, "[3]": {"tested_on": "tumors (neuroblastoma cells)", "conditions": "after false-positive and false-negative imaging results are ruled out"}, "[4]": {"conditions": "used for diagnosis"}, "[5]": {"tested_on": "neuroblastoma", "conditions": "in vivo"}, "[6]": {"conditions": "despite the use of oral potassium iodide (KI)"}, "[7]": {"conditions": "ranging from 15 minutes to 48 hours"}}, "note": "Read-outs that look alike come from different tables or passages of the source."}
{"molecule": "N=C(N)NCc1cccc(I)c1", "note": "[MIBG, meta-iodobenzylguanidine]", "values": [{"measurement": "sensitivity of imaging compared with FDG-PET", "setting": "[1]", "result": "higher sensitivity"}, {"measurement": "gathered in neuroblast", "setting": "[2]", "result": 90, "unit": "%"}]}
{"molecule": "N=C(N)NCc1cccc([123I])c1", "note": "[^123I-MIBG, iodine-123 meta-iodobenzylguanidine]", "values": [{"measurement": "specifically bound to tumors", "setting": "[3]", "result": "~100", "unit": "%"}, {"measurement": "patients with accumulated ^123I-MIBG in salivary glands", "setting": "[4]", "result": "92-100%"}]}
{"molecule": "N=C(N)NCc1cccc([131I])c1", "note": "[^131I-MIBG]", "values": [{"measurement": "excreted out of the body through urine", "setting": "24 hours after injection", "result": 57, "unit": "%"}, {"measurement": "excreted out of the body through urine", "setting": "48 hours after injection", "result": 70, "unit": "%"}, {"measurement": "still exists in the blood", "setting": "one hour after injection, neuroblastoma patients", "result": "≤ 10", "unit": "%"}, {"measurement": "treatment effective rate on neuroblastoma", "setting": "[5]", "result": "30-40%"}, {"measurement": "side effects of therapy", "setting": "[6]", "result": "hypothyroidism still occurs"}, {"measurement": "saliva-to-plasma ratio", "setting": "[7]", "result": "greater than 1.0"}]}
